Laboratory results taken from patent publication US5187192A, “Cyclobutyl derivatives having lipoxygenase inhibitory activity” (Abbott Laboratories, priority 1992, dated 1993).

Experiments:
[1] = target: T1, 5-Lipoxygenase (Homo sapiens, UniProt P09917); test: Inhibition of calcium ionophore-induced LTB4 biosynthesis in human whole blood (5-lipoxygenase inhibition); assay type: cell-based; settings: human heparinized whole blood, A23187 8.3 μM; for IC50: 15 min preincubation at 37° C., 30 min, read-out: IC50, inhibition of 5-lipoxygenase from stimulated LTB4 formation in human whole blood; for percent inhibition of 5-lipoxygenase from stimulated LTB4 formation in human whole blood: @ 0.1 (column unit 10^-6 M)
T1 construct: Human heparinized whole blood was preincubated with test compounds or vehicle for 15 min; endogenous in cells; host or cells: heparinized human whole blood (blood cells stimulated with calcium ionophore A23187)
T1 sequence (P09917 1-674): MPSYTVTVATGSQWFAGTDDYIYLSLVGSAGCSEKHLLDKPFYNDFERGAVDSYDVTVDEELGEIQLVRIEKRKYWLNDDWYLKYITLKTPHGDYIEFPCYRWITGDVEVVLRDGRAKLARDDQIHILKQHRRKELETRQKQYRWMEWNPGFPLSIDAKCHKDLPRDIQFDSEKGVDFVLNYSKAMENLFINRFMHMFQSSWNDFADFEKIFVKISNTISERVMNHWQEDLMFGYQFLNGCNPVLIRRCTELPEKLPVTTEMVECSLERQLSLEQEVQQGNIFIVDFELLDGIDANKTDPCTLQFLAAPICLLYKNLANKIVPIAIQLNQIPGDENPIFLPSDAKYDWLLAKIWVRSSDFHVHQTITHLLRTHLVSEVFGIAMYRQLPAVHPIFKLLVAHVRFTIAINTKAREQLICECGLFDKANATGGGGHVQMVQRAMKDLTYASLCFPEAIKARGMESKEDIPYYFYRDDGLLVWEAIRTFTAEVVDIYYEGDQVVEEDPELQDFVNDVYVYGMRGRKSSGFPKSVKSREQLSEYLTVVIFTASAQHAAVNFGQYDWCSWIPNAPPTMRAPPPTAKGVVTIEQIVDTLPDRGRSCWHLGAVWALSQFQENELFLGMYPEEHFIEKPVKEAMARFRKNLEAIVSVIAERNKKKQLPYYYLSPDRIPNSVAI
Protocol: Inhibition of leukotriene biosynthesis was evaluated in an assay, involving calcium ionophore-induced LTB4 biosynthesis expressed human whole blood. […] The methanol extract was analyzed for LTB4 using a commercially available radioimmunoassay.

[2] = system: leukotriene biosynthesis; test: Inhibition of leukotriene biosynthesis in vivo after oral administration, rat peritoneal anaphylaxis model; settings: at 30 μM/kg, gavage one hour prior to antigen challenge, peritoneal fluid 15 minutes after challenge
Protocol: Inhibition of the biosynthesis of leukotrienes in vivo after oral administration of compound was determined using a rat peritoneal anaphylaxis model in a similar manner as that described by Yound and coworkers (Young, P. R.; Dyer, R. D.; Carter, G. W. Fed. Proc., Fed. Am. Soc. Exp. Biol. 1985, 44, 1185). In this model rats were injected intraperitoneally (ip) with rabbit antibody to bovine serum albumin (BSA) and three hours later injected ip with BSA to induce an antigen-antibody response. Rats were sacrificed 15 minutes after this challenge and the peritoneal fluids were collected and analyzed for leukotriene levels. Test compounds were administered by gavage one hour prior to the antigen challenge. Percent inhibition values were determined by comparing the treatment group to the mean of the control group.

SMILES	IC50 [1] [nM]	Percent Inhibition of Leukotriene Biosynthesis [2] [%]	percent inhibition of 5-lipoxygenase from stimulated LTB4 formation in human whole blood [1] [%]
COc1ccc2cc(C3CC(N(O)C(N)=O)C3)ccc2c1 (single isomer, unassigned) [Example 4b, N-[3-(6-methoxy-2-naphthyl)-cyclobutyl]-N-hydroxyurea]	520		
NC(=O)N(O)C1CC(c2ccc(-c3ccccc3)cc2)C1 (single isomer, unassigned) [Example 5a, N-[3-(4-biphenyl)-cyclobutyl]-N-hydroxyurea]	90		
COc1cccc(C2CC(N(O)C(C)=O)C2)c1 (single isomer, unassigned) [Example 6b, N-[3-(3-methoxyphenyl)cyclobutyl]-N-hydroxyacetamide]	1210		
NC(=O)N(O)C1CC(c2ccccc2)C1 (single isomer, unassigned) [Example 2b, N-[3-phenylcyclobutyl]-N-hydroxyurea]	300	45	
NC(=O)N(O)C1CC(c2ccc(-c3ccccc3)cc2)C1 (single isomer, unassigned) [Example 5b, N-[3-(4-biphenyl)-cyclobutyl]-N-hydroxyurea]	960		
COc1ccc2cc(C3CC(N(O)C(N)=O)C3)ccc2c1 (single isomer, unassigned) [Example 4a, N-[3-(6-methoxy-2-naphthyl)-cyclobutyl]-N-hydroxyurea]	230		
NC(=O)N(O)C1CC(c2ccc(Oc3ccc(F)cc3)s2)C1 (single isomer, unassigned) [Example 3b, N-[3-(5-(4-fluorophenoxy)thien-2-yl)-cyclobutyl]-N-hydroxyurea]		82	52
NC(=O)N(O)C1CC(c2ccc(Oc3ccc(F)cc3)s2)C1 (single isomer, unassigned) [Example 3a, N-[3-(5-(4-fluorophenoxy)thien-2-yl)-cyclobutyl]-N-hydroxyurea]			53
NC(=O)N(O)C1CC(c2cccc(Oc3ccc(F)cc3)c2)C1 (single isomer, unassigned) [Example 1a, N-[3-(3-(4-fluorophenoxy)phenyl)-cyclobutyl]-N-hydroxyurea]	130	76	
COc1cccc(C2CC(N(O)C(C)=O)C2)c1 (single isomer, unassigned) [Example 6a, N-[3-(3-methoxyphenyl)cyclobutyl]-N-hydroxyacetamide]	510		
NC(=O)N(O)C1CC(c2cccc(Oc3ccc(F)cc3)c2)C1 (single isomer, unassigned) [Example 1b, N-[3-(3-(4-fluorophenoxy)phenyl)-cyclobutyl]-N-hydroxyurea]	160	59	
NC(=O)N(O)C1CC(c2ccccc2)C1 (single isomer, unassigned) [Example 2a, N-[3-phenylcyclobutyl]-N-hydroxyurea]	330	51	
